# Source: patent publication US6329502A, “β-amino-α-hydroxycarboxylic acid derivatives and HIV protease inhibitors” (priority 1990, dated 2001)
# Target: T1, chemically synthesized HIV protease (Human immunodeficiency virus type 1 group M subtype B, UniProt P12497, C555A/C583A)
# T1 construct: The HIV protease was chemically synthesized; made in house; host or cells: chemical peptide synthesis, no expression host
# Type: biochemical
# Conditions: inhibitor 5 μM (final concentration)
# Procedure: The HIV protease was chemically synthesized by replacement of two cysteine residues in the natural sequence [Science, 230, 349 (1985)] with alanine residues. The reaction mixture contained 100 mM MES buffer (pH 5.5), 40 mM of substrate (Ac-[…]NH2 trifluoro-acetate), inhibitors at varying concentrations dissolved in DMSO and 9.2 μg of the HIV protease in a total volume of 15 μl. Incubation was carried out at 37° C. for 60 min. The reaction was started by the addition of the enzyme and terminated by 15 μl of acetonitrile. The amount of a fragment peptide produced was measured by reversed-phase HPLC analysis using an internal standerd. The HPLC condition was as followes.
# Solvent A: 0.1% trifluoroacetic acid aqueous solution
# Gradient: B was increased in 1.0%/min from 100% of A,
row,Compound,Residual Activity (%) 5 μM [%]
1,"CC[C@H](C)[C@H](NC(=O)[C@@H]1CCCN1C(=O)[C@@H](O)[C@H](Cc1ccccc1)NC(=O)[C@H](CC(N)=O)NC(=O)OCc1ccccc1)C(=O)NCC1CCCCC1 [Example 32, Benzyloxycarbonyl-Asn-(2S,3S)-AHPBA-Pro-Ile-NH--CH2 --C6 H11]",4.0

# Same assay, conditions: inhibitor 1 mM
row,Compound,Residual Activity (%) 1 mM [%]
1,"CC(C)(C)OC(=O)N[C@@H](CC(N)=O)C(=O)N[C@@H](Cc1ccccc1)[C@@H](O)C(=O)NCC1CCCCC1 [Example 1, Boc-Asn-(2R,3S)-AHPBA-NH--CH2 --C6 H11]",32.8
2,"CC(C)(C)OC(=O)N[C@@H](Cc1ccccc1)C(=O)N[C@@H](CC(N)=O)C(=O)N[C@@H](Cc1ccccc1)[C@@H](O)C(=O)NCC1CCCCC1 [Example 2, Boc-Phe-Asn-(2R,3S)-AHPBA-NH--CH2 --C6 H11]",19.5
3,"CC(C)(C)OC(=O)N[C@@H](CC(N)=O)C(=O)N[C@@H](Cc1ccccc1)[C@H](O)C(=O)NCC1CCCCC1 [Example 3, Boc-Asn-(2S,3S)-AHPBA-NH--CH2 --C6 H11]",52.9
4,"CC(C)(C)OC(=O)N[C@@H](Cc1ccccc1)C(=O)N[C@@H](CC(N)=O)C(=O)N[C@@H](Cc1ccccc1)[C@H](O)C(=O)NCC1CCCCC1 [Example 4, Boc-Phe-Asn-(2S,3S)-AHPBA-NH--CH2 --C6 H11]",20.3
5,"CC(C)(C)OC(=O)N[C@@H](CO)C(=O)N[C@@H](Cc1ccccc1)[C@@H](O)C(=O)NCC1CCCCC1 [Example 5, Boc-Ser-(2R,3S)-AHPBA-NH--CH2 --C6 H11]",82.9
6,"CC(C)(C)OC(=O)N[C@@H](Cc1ccccc1)C(=O)N[C@@H](CO)C(=O)N[C@@H](Cc1ccccc1)[C@@H](O)C(=O)NCC1CCCCC1 [Example 6, Boc-Phe-Ser-(2R,3S)-AHPBA-NH--CH2 --C6 H11]",33.3
7,"CC(C)(C)OC(=O)N[C@@H](CO)C(=O)N[C@@H](Cc1ccccc1)[C@H](O)C(=O)NCC1CCCCC1 [Example 7, Boc-Ser-(2S,3S)-AHPBA-NH--CH2 --C6 H11]",15.6
8,"CC(C)(C)OC(=O)N[C@@H](Cc1ccccc1)C(=O)N[C@@H](CO)C(=O)N[C@@H](Cc1ccccc1)[C@H](O)C(=O)NCC1CCCCC1 [Example 8, Boc-Phe-Ser(2S,3S)-AHPBA-NH--CH2 --C6 H11]",47.0
9,"NC(=O)C[C@H](N)C(=O)N[C@@H](Cc1ccccc1)[C@@H](O)C(=O)NCC1CCCCC1 [Example 9, H-Asn-(2R,3S)-AHPBA-NH--CH2 --C6 H11]",92.1
10,"NC(=O)C[C@H](NC(=O)[C@@H](N)Cc1ccccc1)C(=O)N[C@@H](Cc1ccccc1)[C@@H](O)C(=O)NCC1CCCCC1 [Example 10, H-Phe-Asn-(2R,3S)-AHPBA-NH--CH2 --C6 H11]",43.4
11,"NC(=O)C[C@H](NC(=O)[C@@H](N)Cc1ccccc1)C(=O)N[C@@H](Cc1ccccc1)[C@H](O)C(=O)NCC1CCCCC1 [Example 11, H-Phe-Asn-(2S,3S)-AHPBA-NH--CH2 --C6 H11]",16.4
12,"N[C@@H](CO)C(=O)N[C@@H](Cc1ccccc1)[C@@H](O)C(=O)NCC1CCCCC1 [Example 12, H-Ser-(2R,3S)-AHPBA-NH--CH2 --C6 H11]",89.7
13,"N[C@@H](Cc1ccccc1)C(=O)N[C@@H](CO)C(=O)N[C@@H](Cc1ccccc1)[C@@H](O)C(=O)NCC1CCCCC1 [Example 13, H-Phe-Ser-(2R,3S)-AHPBA-NH--CH2 --C6 H11]",58.9
14,"N[C@@H](CO)C(=O)N[C@@H](Cc1ccccc1)[C@H](O)C(=O)NCC1CCCCC1 [Example 14, H-Ser-(2S,3S)-AHPBA-NH--CH2 --C6 H11]",95.5
15,"N[C@@H](Cc1ccccc1)C(=O)N[C@@H](CO)C(=O)N[C@@H](Cc1ccccc1)[C@H](O)C(=O)NCC1CCCCC1 [Example 15, H-Phe-Ser-(2S,3S)-AHPBA-NH--CH2 --C6 H11]",23.8
16,"CC[C@H](C)[C@H](NC(=O)[C@@H]1CCCN1C(=O)[C@@H](O)[C@H](Cc1ccccc1)NC(=O)OC(C)(C)C)C(=O)OC1CCCCC1 [Example 28, Boc-(2S,3S)-AHPBA-Pro-Ile-O--C6 H11]",63.9
17,"CC[C@H](C)[C@H](NC(=O)[C@@H]1CCCN1C(=O)[C@H](O)[C@H](Cc1ccccc1)NC(=O)OC(C)(C)C)C(=O)OC1CCCCC1 [Example 29, Boc-(2R,3S)-AHPBA-Pro-Ile-O--C6 H11]",88.3
18,"CC[C@H](C)[C@H](NC(=O)[C@@H]1CCCN1C(=O)[C@@H](O)[C@H](Cc1ccccc1)NC(=O)OC(C)(C)C)C(=O)NCC1CCCCC1 [Example 30, Boc-(2S,3S)-AHPBA-Pro-Ile-NH--CH2 --C6 H11]",23.4
19,"CC[C@H](C)[C@H](NC(=O)[C@@H]1CCCN1C(=O)[C@H](O)[C@H](Cc1ccccc1)NC(=O)OC(C)(C)C)C(=O)NCC1CCCCC1 [Example 31, Boc-(2R,3S)-AHPBA-Pro-Ile-NH--CH2 --C6 H11]",47.4
20,"Boc-(2S,3S)-AHPBA-(cHexm)Gly-Ile-NH--CH2 --C6 H11 [Example 33]",85.6
21,"H-Val-Val-(2R,3S)-AHPBA-(D)-Phe-(D)-Val-(D)-Val-NH2 [Example 23]",28.3

# Target: recombinant HIV protease (Human immunodeficiency virus type 1 group M subtype B, UniProt P12497)
# Conditions: inhibitor 5 μM (final concentration), 2.0 μg enzyme
row,Compound,residual enzymic activity [%]
1,"CC[C@H](C)[C@H](NC(=O)[C@@H]1CCCN1C(=O)[C@@H](O)[C@H](Cc1ccccc1)NC(=O)[C@H](CC(N)=O)NC(=O)OCc1ccccc1)C(=O)NCC1CCCCC1 [Example 32, Benzyloxycarbonyl-Asn-(2S,3S)-AHPBA-Pro-Ile-NH--CH2 --C6 H11]",11.0
